Test results published in PMC9889419 (Pharmacological Reports, 2022).
Read-outs that look alike come from different tables or passages of the source.

Assays:
mice [1] = test: 6 Hz test; type: in vivo; conditions: 32 mA, mice, ip
Method: The 6 Hz model test was carried out according to the protocol originally described by Brown et al. [54] and more recently by Barton et al. [55] and Kamiński et al. [47] and is a model of pharmacoresistant epilepsy [56].

mice [2] = test: Subcutaneous pentylenetetrazole seizure test (ScPTZ, SCMET); type: in vivo; conditions: mice, ip, […]
Method: (§3) The assays were carried out within the Epilepsy Therapy Screening Program (ETSP, previously known as the Anticonvulsant Screening Program, ASP), Epilepsy Branch, National Institute of Neurological and Communicative Disorders and Stroke, National Institutes of Health in Rockville, MD, USA [23].

mice [3] = test: Formalin test (ETSP, area under the curve); type: in vivo; conditions: 20.0 mg/kg, ip
rats [4] = conditions: ip
Method: as §3

rats [5] = type: in vivo; conditions: ip
rats [6] = test: Rotarod / TOX (neurotoxicity); conditions: rats, ip
Method: as §3
(§4) The obtained compounds were screened for antiseizure activity and neurotoxicity in vivo within the Epilepsy Therapy Screening Program (ETSP, previously known as the Anticonvulsant Screening Program, ASP), Epilepsy Branch, National Institute of Neurological and Communicative Disorders and Stroke, National Institutes of Health in Rockville, MD, USA [23].

rats [7] = test: Maximal electroshock seizure (MES) test; type: in vivo
[8] = tested on: organotypic hippocampal slice cultures; test: Neuroprotection primary screen, excitotoxin kainic acid; type: cell-based; conditions: kainic acid 20 µM; 10 and 100 µM compound
Method: Compound 2 : ADD t{umber, b890s0 Batch: lB- Date Compteted. Ect\,t""201 0 […]
Excilotoxin: llGinic ncia Insult Duration: l+ Hours Solvent: […]
Ai lxn zopr.,r aZ lxa zopr,r Ae lre zoprta
Bz lr<n zopn er ]ra zopr',t l:+aot a r ooprt/|*aa9o8o l oopM lgaeota t oot,tr,t*gB9o8o t oopM […]
The "Primary screen Experiment" is a qualitative assessment of the ability of a compound to prevent excitotoxic cell dearh. organotypic hippocampal slice clltures are treated with N-methyl-D-aipartate lNuoa; o; kainic acid (KA) to induce neuronal cell death. Propidium iodide (Pl), a membrane-impermeant compound, is included in all welts of the culture plate.
Dying cells have compromised cell membranes, thus Pl may diffuse into the cell, intercalate with DNA and ftuoresce. Thus, the intensity of the Pl fluorescence is proportional to the amount of cell death in the individual slices. Hippocampal slice cultures are treated with the excitotoxin alone, or where indicated above, with the excitotoxin and either one eltu/o investigational compounds at the concentrations indicated. lf neuroprotection occurs as a consequence of the added […]
(§1) been treated with the excitotoxin alone.
(§2) (1 picture or pasted object on this page, not shown here)

rats [9] = test: Acute toxicity (ETSP screening); type: in vivo; conditions: ip, 0.5 h
mice [10] = test: Rotarod test (neurotoxicity); type: in vivo; conditions: mice, ip, […];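 further: in vivo neurotoxicity screen run within the NIH Epilepsy Therapy Screening Program (ETSP, formerly Anticonvulsant Screening Program)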
Method: as §3, §4

mice [11] = test: iv pentylenetetrazole (PTZ) seizure threshold test; conditions: compound ip
Method: They were also evaluated in the iv pentylenetetrazole (PTZ) test.
Data are expressed as the mean PTZ dose ± SEM for n = 10 that induced clonus or twitch in mice exposed to a particular dose of the test compound

mice [12] = conditions: mice, ip, […]
Method: as §3, §4

[13] = tested on: organotypic hippocampal slice cultures; test: Neuroprotection primary screen, excitotoxin NMDA; type: cell-based; conditions: NMDA 10 µM; 10 and 100 µM compound
Description: Gompound 1 : ADD Number: ItSot+ Batct: lE- Date Started:
Compound 2 : ADD Number: Froso Batct: le Date Completed i l|26-M ar -20 1 O […]
Excitotoxin: lNmoa lnsult Duration: la Uouo Solvent:
Primary Screen Results: ffi […]
Al lruuoa rolrr,| A2lr'rrr,tOa r Olrrr,t * --.- A3 lr'rnroa r oprvr + lsaoot+ t oplrl+aesogo iopM
BZ lr.rrr,ron ropr,t , -_-_-- 83 lluoa topt',r * jffi 1 4 t oopM.€sroso 1 oolrM la+eota tooptu*aasoeo roffi […]
The 'Primary screen Experiment" is a qualitative assessment of the ability of a compound to prevent excrtotoxic cell death. organotypic hippocampal slice cultures are treated *ltn r.i-."iivr-o-"spartate (NMDA) or kainic acad (KA) to induce neuronal cell death' Propidium iodide (Pl), a membrane-imper.eant cornpouna, is included in all wells of the culture plate.
Dying cells have compromised *]lT^"Toj*::, ttr. er rnJy oin "" into the cell, intercatate with DNA and fluoresce. Thus, the intensity of the Pl fluorescence is proportional to the amount of cell death in lhe individual itices. ttippocampat slice cullures are treated with the excitotoxin alone, or *i er. inoi"ui"o above, with the excitotoxin and either one -qf]bar-a Investigalional compounds at the concentrations indicated. lf neuroprotectron occurs as a consequence of the added […]
as §1, §2

rats [14] = type: in vivo; conditions: ip; remark: listed apart in the source

CC[C@H](CO)NCCOc1c(C)cccc1Cl [Compound 5, R-(-)-2-((2-(2-chloro-6-methylphenoxy)ethyl)amino)butan-1-ol]
6 Hz ED50 (mice [1]; […]): 33.1 (29–37.8) mg/kg
6 Hz TPE (mice [1]): 0.25 h
SCMET ED50 (mice [2]): > 70 mg/kg
Area under the curve (I phase) (mice [3]): 155.1 ± 44.2
Area under the curve (II phase) (mice [3]): 496.7 ± 164.7
Area under the curve, % of control (I phase) (mice [3]): 78.7; t14 = 1.3050%
Area under the curve, % of control (II phase) (mice [3]): 105.6; t14 = 0.3579%
Area under the curve (II phase) (mice [3]; listed as 354009): 496.7
Area under the curve, % of control (I phase) (mice [3]; listed as 354009): 78.68%
Area under the curve, % of control (II phase) (mice [3]; listed as 354009): 105.6%
LTG-resistant amygdala seizures: rats with toxicity (rats [4]; 30 mg/kg): 3/4
LTG-resistant amygdala seizures: seizure score by Racine (0–5) (rats [4]; 30 mg/kg): 3.5
LTG-resistant amygdala seizures: rats with toxicity (rats [4]; 50 mg/kg): 5/5
LTG-resistant amygdala seizures: seizure score by Racine (0–5) (rats [4]; 50 mg/kg): 2.2
Pilocarpine-induced status epilepticus prevention: active at (rats [5]): 50 mg/kg
Prot./Tested (rats [5]; 25 mg/kg, 0 h post first Stage III seizure): 2/8
Pilocarpine test: rats died (rats [5]; at 100 mg/kg, […]): 2/2
Rotarod TPE (rats [6]): 0.25 h
Rotarod TD50 (rats [6]; […]): > 30 mg/kg
MES PI (rats [7]; ip): > 9.12
MES TPE (rats [7]; ip): 0.25 h
MES ED50 (rats [7]; ip, […]): 4.65 (2.94–6.88) mg/kg
MES TPE (rats [7]; po): 0.5 h
Test Result (neuroprotection) [8]: No Neuroprotection
Acute toxicity: minimal motor impairment at (rats [9]): 50 mg/kg
Rotarod TD50 (mice [10]): 59.80 (43.80–74.20) mg/kg
influence on seizure threshold (mice [11]): effect was not shown
MES ED50 (mice [12]): 18.20 (16.60–20.00) mg/kg
Test Result (neuroprotection) [13]: No Neuroprotection
Hippocampal kindling TPE (rats [14]): 0.75 h
Hippocampal kindling seizure score by Racine (0–5), Rat1 (rats [14]; at 30 mg/kg): 4
Hippocampal kindling seizure score by Racine (0–5), Rat2 (rats [14]; at 30 mg/kg): 0
